Source: PubChem BioAssay AID1259408 (Genetic Toxicology Data Bank (GENE-TOX), 2018)
Activity calls are given as the source filed them. How the calls were made is not given here.

System: GENE-TOX genotoxicity assays, various organisms and cells
Assay: GENE-TOX mutagenicity studies
[1] = Species/Cell Type: Mammalian polychromatic erythrocytes, Assay Type: Micronucleus test, chromosome aberrations, Assay Code: MNT+, Evaluation Type: Evaluation B (Post-1980)
[2] = Species/Cell Type: Saccharomyces cerevisiae, Assay Type: Mitotic recombination or gene conversion, Assay Code: YEC+, Evaluation Type: Evaluation A (Pre-1980)
[3] = Species/Cell Type: Saccharomyces cerevisiae, Assay Type: Reverse gene mutation, Assay Code: YER+, Evaluation Type: Evaluation A (Pre-1980)
[4] = Species/Cell Type: Human, Assay Type: Sister-chromatid exchange (SCE) in vitro, Assay Code: SC1T, Evaluation Type: Evaluation B (Post-1980)

Question: Which mutagenic call (Species/Cell Type: Chinese hamster ovary (CHO) cells, Assay Type: Forward gene mutation at the HPRT locus, Assay Code: CHO+, Evaluation Type: Evaluation B (Post-1980)) does the source give for `O=C(O)CCCc1ccc(N(CCCl)CCCl)cc1` here?
Answer: active; positive

Question: What about the mutagenic call (Species/Cell Type: Drosophila melanogaster, Assay Type: Sex-linked recessive lethal gene mutation, Assay Code: SRL+, Evaluation Type: Evaluation A (Pre-1980)) of the same compound?
Answer: active; positive

Question: And the mutagenic call (Species/Cell Type: Human lymphocytes, Assay Type: Sister-chromatid exchange (SCE) in vitro, Assay Code: SCL+D, Dose Response: With dose response, Evaluation Type: Evaluation A (Pre-1980))?
Answer: active; positive

Question: What about the mutagenic call (Species/Cell Type: Human lymphocytes, Assay Type: Sister-chromatid exchange (SCE) in vitro, Assay Code: SCL+D, Dose Response: With dose response, Evaluation Type: Evaluation B (Post-1980)) of the same compound?
Answer: active; positive

Question: What about the mutagenic call (Species/Cell Type: Human lymphocytes, Assay Type: Sister-chromatid exchange (SCE) in vivo, Assay Code: SCY+, Evaluation Type: Evaluation B (Post-1980)) of the same compound?
Answer: active; positive

Question: What about the mutagenic call (Species/Cell Type: Human, Assay Type: Sister-chromatid exchange (SCE) in vitro, Assay Code: SC1+D, Dose Response: With dose response, Evaluation Type: Evaluation A (Pre-1980)) of the same compound?
Answer: active; positive

Question: What about the mutagenic call (Species/Cell Type: Human, Assay Type: Sister-chromatid exchange (SCE) in vitro, Assay Code: SC1+D, Dose Response: With dose response, Evaluation Type: Evaluation B (Post-1980)) of the same compound?
Answer: active; positive

Question: What about the mutagenic call (Species/Cell Type: Human, Sex: Male, Assay Type: Sperm morphology, Assay Code: SPH+, Evaluation Type: Evaluation A (Pre-1980)) of the same compound?
Answer: active; positive

Question: What about the mutagenic call [1] of the same compound?
Answer: active; positive

Question: What about the call (Species/Cell Type: Nonhuman, Assay Type: In vivo carcinogenicity studies, Assay Code: CCG+, Evaluation Type: Evaluation A (Pre-1980)) of the same compound?
Answer: active; positive

Question: What about the mutagenic call (Species/Cell Type: Nonhuman, Assay Type: Sister-chromatid exchange (SCE) in vitro, Assay Code: SC2+, Evaluation Type: Evaluation B (Post-1980)) of the same compound?
Answer: active; positive

Question: What about the mutagenic call [2] of the same compound?
Answer: active; positive

Question: What about the mutagenic call [3] of the same compound?
Answer: active; positive

Question: How did the mutagenic call [1] turn out when `Clc1ccc(Cl)c(Cl)c1` was run?
Answer: active; positive

Question: Which mutagenic call [4] does the source give for `O=c1oc2cc3occc3cc2c2ccncc12` here?
Answer: no conclusion

Question: How did the mutagenic call (Species/Cell Type: Nonhuman, Assay Type: Sister-chromatid exchange (SCE) in vitro, Assay Code: SC2-, Evaluation Type: Evaluation B (Post-1980)) turn out when `CCOP(=O)(NC(C)C)Oc1ccc(SC)c(C)c1` (centres undefined) was run?
Answer: inactive; negative

Question: For `O=CCC=O`, which mutagenic call (Species/Cell Type: Salmonella typhimurium (one or more of the five standard strains: TA98, TA100, TA1535, TA1537, and TA1538), Assay Type: Histidine reverse gene mutation, Ames assay, Assay Code: SALT, Evaluation Type: Evaluation A (Pre-1980)) is on record?
Answer: no conclusion

Question: How did the mutagenic call (Species/Cell Type: Nonhuman, Assay Type: Sister-chromatid exchange (SCE) in vitro, Assay Code: SC2+D, Dose Response: With dose response, Evaluation Type: Evaluation B (Post-1980)) turn out when `O=C=Nc1ccc2ccccc2c1` was run?
Answer: active; positive

Question: How did the mutagenic call (Species/Cell Type: Human lymphocytes, Assay Type: Sister-chromatid exchange (SCE) in vitro, Assay Code: SCLT, Evaluation Type: Evaluation B (Post-1980)) turn out when `Cc1c(N)nc(C(CC(N)=O)NCC(N)C(N)=O)nc1C(=O)NC(C(=O)NC(C)C(O)C(C)C(=O)NC(C(=O)NCCc1nc(-c2nc(C(=O)NCCC[S+](C)C)cs2)cs1)C(C)O)C(O[C@@H]1O[C@@H](CO)[C@@H](O)[C@H](O)[C@@H]1O[C@H]1O[C@H](CO)[C@@H](O)[C@H](OC(N)=O)[C@@H]1O)c1cnc[nH]1` (some centres undefined) was run?
Answer: no conclusion

Question: And the mutagenic call [4]?
Answer: no conclusion

Question: What about the mutagenic call [2] of the same compound?
Answer: active; positive

Question: What about the mutagenic call (Species/Cell Type: Saccharomyces cerevisiae, Assay Type: Mitotic recombination or gene conversion, Assay Code: YEH+, Evaluation Type: Evaluation A (Pre-1980)) of the same compound?
Answer: active; positive

Question: What about the mutagenic call [3] of the same compound?
Answer: active; positive

Question: `COc1ccc2c(ccc3c4c(ccc32)C(C)=CC4)c1` was tested. Which mutagenic call (Species/Cell Type: Salmonella typhimurium (one or more of the five standard strains: TA98, TA100, TA1535, TA1537, and TA1538), Assay Type: Histidine reverse gene mutation, Ames assay, Assay Code: SAL+*, Activation: With metabolic activation, Evaluation Type: Evaluation A (Pre-1980)) did it give?
Answer: active; positive
